In paper PMC9753424 (2022):

Assays:
Test in all cases: bio-layer interferometry
[1] = test system: double-stranded DNA (DNA, duplex) GGCATAGTGCGTGGGCG/CGCCCACGCACTATGCC; conditions: PBS (ion concentrations not given), 0.5% DMSO, 0.02% Tween-20, highest hemin 8 μM
[2] = test system: MYC-G4 (DNA, G4) TGAGGGTGGGTAGGGTGGGTAA; conditions: PBS (ion concentrations not given), 0.5% DMSO, 0.02% Tween-20, 25 °C sensor hydration
[3] = test system: SPB1-G4 (DNA, G4) GGCGAGGGGCGTGGCCGGC; conditions: PBS (ion concentrations not given), 0.5% DMSO, 0.02% Tween-20, highest hemin 8 μM
[4] = test system: ssDNA oligonucleotide (DNA, single strand) GGCATAGTGCGTGGGCG; conditions: PBS (ion concentrations not given), 0.5% DMSO, 0.02% Tween-20, highest hemin 8 μM
[5] = test system: hTELO-G4 (DNA, G4) GGTTAGGGTTAGGGTTAGGGTTAGGGTTAG; conditions: PBS (ion concentrations not given), 0.5% DMSO, 0.02% Tween-20, highest hemin 8 μM
[6] = test system: intermolecular hTELO-G4 (DNA, G4) TTAGGGTTAGGGTTAGGG; conditions: PBS (ion concentrations not given), 0.5% DMSO, 0.02% Tween-20, highest hemin 8 μM

binding [1] | KD ([2]; hemin 0.5-8 μM) [nM] | binding [3] | binding [4] | binding [5] | binding [6] | KD ([2]; PpIX 1.25-20 μM) [nM] | SMILES
no | 1520 ± 40 | no | no | no | no | – | C=CC1=C(C)c2cc3[n-]c(cc4[n-]c(cc5nc(cc1n2)C(C)=C5C=C)c(C)c4CCC(=O)O)c(CCC(=O)O)c3C.[Cl-].[Fe+3]
– | – | – | – | – | – | 3040 ± 50 | C=CC1=C(C)c2cc3[nH]c(cc4nc(cc5[nH]c(cc1n2)c(C)c5CCC(=O)O)C(CCC(=O)O)=C4C)c(C)c3C=C
